Experiment: logP determination by reversed-phase HPLC (EEC Directive 79/831 Annex V.A8)
Description: Die Messung der logP Werte erfolgte gemäß EEC Directive 79/831 Annex V.A8 durch HPLC (High Performance Liquid Chromatography) an reverser Phase Säulen (C 18), mit nachfolgenden Methoden: • ^[a] Die Bestimmung erfolgt bei pH 2.3 mit 0,1% wässriger Phosphorsäure und Acetonitril als Eluenten (linearer Gradient von 10 bis 95% Acetonitril). • ^[b] Die Bestimmung erfolgt mit LC-MS bei pH 2,7 mit 0,1 % wässriger Ameisensäure und Acetonitril als Eluenten (linearer Gradient von 10% bis 95% Acetonitril). • ^[c] Die Bestimmung erfolgt mit LC-MS bei pH 7,8 mit 0,001 M wässriger Ammoniumhydrogencarbonat-Lösung und Acetonitril als Eluenten (linearer Gradient von 10 % bis 95 % Acetonitril).
Die Eichung erfolgt mit unverzweigten Alkan-2-onen (mit 3 bis 16 Kohlenstoffatomen), deren logP-Werte bekannt sind (Bestimmung der logP-Werte anhand der Retentionszeiten durch lineare Interpolation zwischen zwei aufeinander folgenden Alkanonen). Die lambda-maX-Werte wurden an Hand der UV-Spektren von 200 bis 400 nm in den Absorptionsmaxima ermittelt.

[1] = method [a]: pH 2.3, 0,1% aqueous phosphoric acid and acetonitrile, linear gradient 10 to 95% acetonitrile
[2] = method [c]: LC-MS, pH 7,8, 0,001 M aqueous ammonium hydrogen carbonate and acetonitrile, linear gradient 10 % to 95 % acetonitrile
[3] = aqueous ammonium hydrogen carbonate/acetonitrile, pH 7.8
[4] = 0.1% aqueous phosphoric acid/acetonitrile, pH 2.3

SMILES	log p [1]	log p [2]	also measured
CCSC[C@H](C)NC(=O)c1c(I)cccc1C(=O)Nc1ccc(C(F)(C(F)(F)F)C(F)(F)F)c(F)c1C [compound 19]	4,71^[a]		
Cc1cc(C(F)(C(F)(F)F)C(F)(F)F)ccc1NC(=O)c1cccc(I)c1C(=O)N[C@@H](C)CS(C)(=O)=O [compound 1]	3,18		chromatographic logP [3]: 3.2
CCSC[C@H](C)NC(=O)c1c(I)cccc1C(=O)Nc1ccc(C(F)(C(F)F)C(F)(F)F)cc1Cl (stereo partly shown) [compound 34]			chromatographic logP [4]: 4.2; chromatographic logP [3]: 4.2
CSC[C@H](C)NC(=O)c1c(Cl)cccc1C(=O)Nc1ccc(C(F)(F)C(F)(F)F)c(F)c1C [compound 11]			log p (method [b]: LC-MS, pH 2,7, 0,1 % aqueous formic acid and acetonitrile, linear gradient 10% to 95% acetonitrile): 3,94^[b]
Cc1c(NC(=O)c2cccc(I)c2C(=O)N[C@@H](C)C[S+](C)[O-])ccc(C(F)(F)C(F)(F)F)c1F (stereo partly shown) [compound 31]	2,5^[a]		
CCSC[C@H](C)NC(=O)c1c(I)cccc1C(=O)Nc1ccc(C(C(F)F)C(F)(F)F)cc1F (stereo partly shown) [compound 40]	3,57^[a] 3,57^[c]	3,57^[a] 3,57^[c]	
CSC[C@H](C)NC(=O)c1c(Br)cccc1C(=O)Nc1ccc(C(F)(C(F)F)C(F)(F)F)cc1Br (stereo partly shown) [compound 29]	3,81^[a]		
CCSC[C@H](C)NC(=O)c1c(I)cccc1C(=O)Nc1ccc(C(C(F)F)C(F)(F)F)cc1Cl (stereo partly shown) [compound 38]	3,76	3,79	
CSC[C@H](C)NC(=O)c1c(I)cccc1C(=O)Nc1ccc(C(C(F)F)C(F)(F)F)cc1Br (stereo partly shown) [compound 37]	3,51	3,54	
Cc1c(NC(=O)c2cccc(Cl)c2C(=O)N[C@@H](C)C[S+](C)[O-])ccc(C(C(F)(F)F)C(F)(F)F)c1F (stereo partly shown) [compound 51]		2,41	chromatographic logP (pH 2.3): 2.5
CSC[C@H](C)NC(=O)c1c(I)cccc1C(=O)Nc1ccc(C(F)(C(F)(F)F)C(F)(F)F)c(F)c1C [compound 25]	4,41^[a]		
Cc1c(NC(=O)c2cccc(I)c2C(=O)N[C@@H](C)CS(C)(=O)=O)ccc(C(F)(C(F)(F)F)C(F)(F)F)c1F [compound 27]	3,27^[a]		
CC[S+]([O-])C[C@H](C)NC(=O)c1c(I)cccc1C(=O)Nc1ccc(C(F)(C(F)(F)F)C(F)(F)F)c(F)c1C (stereo partly shown) [compound 9]	2,97^[a]		
Cc1cc(C(C(F)(F)F)C(F)(F)F)c(F)cc1NC(=O)c1cccc(Cl)c1C(=O)N[C@@H](C)C[S+](C)[O-] (stereo partly shown) [compound 52]	2,58	2,51	
Cc1cc(C(C(F)(F)F)C(F)(F)F)c(F)cc1NC(=O)c1cccc(Br)c1C(=O)N[C@@H](C)C[S+](C)[O-] (stereo partly shown) [compound 53]	2,58	2,51	
C[C@@H](CS(C)(=O)=O)NC(=O)c1c(I)cccc1C(=O)Nc1ccc(C(C(F)F)C(F)(F)F)cc1Cl (stereo partly shown) [compound 42]	2,69	2,72	
CCSC[C@H](C)NC(=O)c1c(I)cccc1C(=O)Nc1ccc(C(C(F)F)C(F)(F)F)cc1Br (stereo partly shown) [compound 39]	3,78		chromatographic logP [3]: 3.8
CCS(=O)(=O)C[C@H](C)NC(=O)c1c(I)cccc1C(=O)Nc1ccc(C(C(F)F)C(F)(F)F)cc1Br (stereo partly shown) [compound 46]	2,87	2,92	
CCSC[C@H](C)NC(=O)c1c(I)cccc1C(=O)Nc1ccc(C(F)(C(F)(F)F)C(F)(F)Br)cc1C (stereo partly shown) [compound 32]	4,68		
CCSC[C@H](C)NC(=O)c1c(I)cccc1C(=O)Nc1ccc(C(C(F)F)C(F)(F)F)cc1C (stereo partly shown) [compound 35]	3,63	3,62	
C[C@@H](CS(C)(=O)=O)NC(=O)c1c(I)cccc1C(=O)Nc1ccc(C(F)(C(F)F)C(F)(F)F)cc1F (stereo partly shown) [compound 44]	2,72	2,76	
C[C@@H](CS(C)(=O)=O)NC(=O)c1c(I)cccc1C(=O)Nc1ccc(C(C(F)F)C(F)(F)F)cc1F (stereo partly shown) [compound 45]		2,54	chromatographic logP (pH 2.3): 2.5
Cc1cc(C(F)(C(F)F)C(F)(F)F)ccc1NC(=O)c1cccc(Cl)c1C(=O)N[C@@H](C)CS(C)(=O)=O (stereo partly shown) [compound 49]	2,61	2,64	
CCS(=O)(=O)C[C@H](C)NC(=O)c1c(I)cccc1C(=O)Nc1ccc(C(C(F)F)C(F)(F)F)cc1F (stereo partly shown) [compound 48]	2,65	2,69	
C[C@@H](CS(C)(=O)=O)NC(=O)c1c(I)cccc1C(=O)Nc1ccc(C(C(F)F)C(F)(F)F)cc1Br (stereo partly shown) [compound 43]	2,71	2,76	
CCSC[C@H](C)NC(=O)c1c(I)cccc1C(=O)Nc1ccc(C(F)(C(F)F)C(F)(F)F)cc1C (stereo partly shown) [compound 33]	3,96^[a] 3,96^[c]	3,96^[a] 3,96^[c]	
CCS(=O)(=O)C[C@H](C)NC(=O)c1c(Br)cccc1C(=O)Nc1ccc(C(F)(C(F)F)C(F)(F)F)cc1Br (stereo partly shown) [compound 30]			chromatographic logP [4]: 3.06
Cc1c(NC(=O)c2cccc(I)c2C(=O)N[C@@H](C)C[S+](C)[O-])ccc(C(F)(C(F)(F)F)C(F)(F)F)c1F (stereo partly shown) [compound 8]	2,78^[a]		

Further lines, with some results ahead:

log p [1]	log p [2]	SMILES	also measured
2,82^[a]		Cc1c(NC(=O)c2cccc(Cl)c2C(=O)N[C@@H](C)CS(C)(=O)=O)ccc(C(F)(F)C(F)(F)F)c1F [compound 13]	
2,89	2,94	CCS(=O)(=O)C[C@H](C)NC(=O)c1c(I)cccc1C(=O)Nc1ccc(C(F)(C(F)F)C(F)(F)F)cc1F (stereo partly shown) [compound 47]	
3,14^[a]		CCS(=O)(=O)C[C@H](C)NC(=O)c1c(Cl)cccc1C(=O)Nc1ccc(C(F)(F)C(F)(F)F)c(Cl)c1C [compound 12]	
3,93^[a]		CSC[C@H](C)NC(=O)c1c(Br)cccc1C(=O)Nc1ccc(C(F)(F)C(F)(F)F)c(F)c1C [compound 15]	
3,12	3,18	CCS(=O)(=O)C[C@H](C)NC(=O)c1c(I)cccc1C(=O)Nc1ccc(C(F)(C(F)F)C(F)(F)F)cc1Cl (stereo partly shown) [compound 41]	
2,97^[a]		Cc1c(NC(=O)c2cccc(I)c2C(=O)N[C@@H](C)CS(C)(=O)=O)ccc(C(F)(F)C(F)(F)F)c1F [compound 24]	
4,31^[a]		CSC[C@H](C)NC(=O)c1c(Br)cccc1C(=O)Nc1ccc(C(F)(C(F)(F)F)C(F)(F)F)c(F)c1C [compound 17]	
3,47^[a]		CCS(=O)(=O)C[C@H](C)NC(=O)c1c(I)cccc1C(=O)Nc1ccc(C(F)(C(F)(F)F)C(F)(F)F)c(F)c1C [compound 21]	
2,86^[a]		Cc1c(NC(=O)c2cccc(Br)c2C(=O)N[C@@H](C)CS(C)(=O)=O)ccc(C(F)(F)C(F)(F)F)c1F [compound 16]	
3,19^[a]		CCS(=O)(=O)C[C@H](C)NC(=O)c1c(Br)cccc1C(=O)Nc1ccc(C(F)(F)C(F)(F)F)c(Cl)c1C [compound 22]	
3,01^[a]		CCS(=O)(=O)C[C@H](C)NC(=O)c1c(Cl)cccc1C(=O)Nc1ccc(C(F)(F)C(F)(F)F)c(F)c1C [compound 14]	
4,2^[a]		CSC[C@H](C)NC(=O)c1c(I)cccc1C(=O)Nc1ccc(C(F)(F)C(F)(F)F)c(Cl)c1C [compound 26]	
4,04^[a]		CSC[C@H](C)NC(=O)c1c(I)cccc1C(=O)Nc1ccc(C(F)(F)C(F)(F)F)c(F)c1C [compound 23]	
